Experimental data as given in the NIST ThermoML archive (doi:10.1016/j.fluid.2012.05.007).

Legend:
[1] = 288.15 K
[2] = mn = molality of the nth substance listed, in mol/kg; conditions: for surface tension liquid-gas: Pendant drop shape; for viscosity / mass density: 101 kPa, Liquid; for viscosity: Capillary tube (Ostwald / Ubbelohde) method; for mass density: Pycnometric method
[3] = wn = mass fraction of the nth substance listed; conditions: for viscosity / mass density: 101 kPa, Liquid; for viscosity: Capillary tube (Ostwald / Ubbelohde) method; for mass density: Pycnometric method; for surface tension liquid-gas: Pendant drop shape

O [water]
Conditions | surface tension liquid-gas [mN/m]
[1], Pendant drop shape | 75.16

Conditions | viscosity [mPa·s]
[1], 101 kPa, Liquid, Capillary tube (Ostwald / Ubbelohde) method | 1.144

O=C([O-])CC(O)(CC(=O)[O-])C(=O)[O-].[K+].[K+].[K+] [potassium citrate] + O
[2]
Conditions | mass density, 293.15 K [kg/m3] | mass density, 303.15 K [kg/m3] | mass density, 313.15 K [kg/m3] | mass density, 323.15 K [kg/m3] | surface tension liquid-gas, 293.15 K [mN/m] | viscosity, 293.15 K [mPa·s] | viscosity, 303.15 K [mPa·s] | viscosity, 313.15 K [mPa·s] | viscosity, 323.15 K [mPa·s]
m1 = 0.45 | 1117.7 | 1112.9 | 1107.8 | 1104.3 | 71.49 | 1.342 | 1.05 | 0.845 | 0.695
m1 = 0.83 | 1201.1 | 1197.2 | 1193.4 | 1190.3 | 75.75 | 1.891 | 1.448 | 1.127 | 0.925
m1 = 1.16 | 1294.6 | 1282.5 | 1274.6 | 1263.7 | 79.08 | 2.933 | 2.205 | 1.644 | 1.291
m1 = 1.48 | 1355.7 | 1343.2 | 1331.9 | 1322.8 | 81.1 | 4.989 | 3.56 | 2.597 | 1.986

CN(CCO)CCO [N-methyldiethanolamine] + O
[3]
Conditions | mass density, 288.15 K [kg/m3] | mass density, 313.15 K [kg/m3] | surface tension liquid-gas, 313.15 K [mN/m] | viscosity, 288.15 K [mPa·s] | viscosity, 313.15 K [mPa·s]
w1 = 0.1 | 1007.1 | 1001.1 | 58.71 | 1.711 | 0.905
w1 = 0.2 | 1017.5 | 1008.1 | 54.68 | 2.631 | 1.312
